Data taken from US11713309B2, “Solid forms of Cerdulatinib” (Alexion Pharmaceuticals, Inc., priority 2018, dated 2023).
Counter-ions that a name gives are not always drawn.

Columns and labels:
Format in all cases: physicochemical
[1] = Slurry competition of free base forms; settings: from 5° C. to 50° C.
Procedure: Slurry competition was performed to evaluate the stability of Compound I free base Form II and Type E. A mixture of Compound I free base Form II and Type E were added into 1.0 mL of saturated EtOH or MEK solution (slurry of Form I at 5° C./RT/50° C. overnight). The suspensions were stirred at target temperatures.
Slurry competition was performed to evaluate the stability of free base Form I and Form II. A mixture of free base Form I and Form II were added into 1.0 mL of saturated EtOH or MEK solution (slurry of Form I at 5° C./RT/50° C. overnight). The suspensions were stirred at target temperatures for 3 days.

[2] = XRPD form evaluation of materials recovered after solubility analysis; settings: aqueous solubility analysis, second scale up material
Procedure: (§1) The solubility of the salts/co-crystals of Compound I prepared from the second scale up process was analyzed. The materials recovered after the solubility analysis were evaluated by XRPD to observe any form changes.

[3] = Slurry maturations in various solvents (form reproducibility/stability); settings: cycling about 25 to about 50° C., about 4 days
Procedure: A series of slurry maturations in various solvents was performed to further analyze the form reproducibility/stability of the esylate, mesylate, HCl, and sulfate salts/co-crystals of Compound I. The solvents chosen were acetonitrile, EtOAc, ethanol, and IPA. The input materials were the salts/co-crystals of Compound I formed via the second scale up process. About 20 mg of each sample was charged to reflux tubes and heated with temperature cycling between about 25 and about 50° C. for about 4 days. The resulting materials were isolated by filtration and dried in vacuo at about 40° C. The results of the slurry maturations for the resulting HCl and mesylate salts/co-crystals are presented in subsections (a)-(d) below. The data for the resulting esylate and sulfate salts/co-crystals of Compound have been omitted due to notable form variation.

[4] = Thermodynamic aqueous solubility by HPLC; settings: HPLC grade water, 25° C., 24 hours, second scale up material
Procedure: The suspension was equilibrated at 25° C. for 24 hours. The suspension was then passed through a filter into an HPLC vial. The filtrate was then diluted by an appropriate factor. Quantification was executed by HPLC with reference to a standard solution of approximately 1 mg·mL^−1 in acetonitrile:water (1:1). Different volumes of the standard, diluted and undiluted sample solutions were injected. […] HPLC method parameters are described in Table 1 and Table 2.
Analysis was performed on an Agilent 1100 series liquid chromatography, equipped with a UV detector (DAD or VWD) @ 254 nm and using Chemstation Rev.B.01.03 software for data processing.
as §1

[5] = Gravimetric vapor sorption (GVS) hygroscopicity
Procedure: Sorption isotherms were obtained using a Hiden Isochema moisture sorption analyser (model IGAsorp), controlled by IGAsorp Systems Software v6.50.48. The sample was maintained at a constant temperature (25° C.) by the instrument controls. The humidity was controlled by mixing streams of dry and wet nitrogen, with a total flow of 250 mL·min^−1. The instrument was verified for relative humidity content by measuring three calibrated Rotronic salt solutions (10-50-88%). The weight change of the sample was monitored as a function of humidity by a microbalance (accuracy+/−0.005 mg). A defined amount of sample was placed in a tared mesh stainless steel basket under ambient conditions. A full experimental cycle consisted of two scans (sorption and desorption) at a constant temperature (25° C.) and 10% RH intervals over a 10-90% range (90 minutes for each humidity level).
The hygroscopicity of the esylate, mesylate, HCl, and sulfate salts/co-crystals of Compound I formed via the first scale up process was analyzed. All hygroscopicity experiments covered a wide range of humidity (0 to about 90% relative humidity) and were performed at about 25° C. to assess behavior.

[6] = Moisture uptake study of Compound I HCl amorphous at ambient conditions
[7] = Thermodynamic pH-solubility profile; settings: 7 days of shaking, about 37° C. water bath
Description: A thermodynamic pH-solubility profile of Compound I HCl Form I in various buffer or non-buffer solutions is further provided in FIG. 61. FIG. 61 additionally includes the thermodynamic pH-solubility profile of Compound I free base. It is of note that no data is shown in the profile of Compound I free base below a pH of about 2.0, as Compound I free base converted to Compound I HCl Form I below a pH of about 2.0. Similarly, no data is shown in the profile of Compound I HCl Form I above a pH of about 3.0, as Compound I HCl Form I converted to Compound I free base above a pH of about 3.0.

CCS(=O)(=O)N1CCN(c2ccc(Nc3ncc(C(N)=O)c(NC4CC4)n3)cc2)CC1 [Compound I Form II, 4-(cyclopropylamino)-2-(4-(4-(ethylsulfonyl)piperazin-1-yl)phenylamino)pyrimidine-5-carboxamide]
Relative thermodynamic stability (slurry competition with Form I) [1]: more thermodynamically stable
Relative thermodynamic stability (slurry competition with Type E) [1]: more thermodynamically stable than Type E

CCS(=O)(=O)N1CCN(c2ccc(Nc3ncc(C(N)=O)c(NC4CC4)n3)cc2)CC1 [Compound I HCl Form II, 4-(cyclopropylamino)-2-(4-(4-(ethylsulfonyl)piperazin-1-yl)phenylamino)pyrimidine-5-carboxamide]
Form change on solubility analysis (XRPD post vs pre) [2]: form change to Compound I HCl Form I
Form after slurry maturation (XRPD) ([3]; IMA): conversion to Compound I Form I
Form after slurry maturation (XRPD) ([3]; IPA): conversion to Compound I Form I, yet retains some mixed features
Form after slurry maturation (XRPD) ([3]; acetonitrile and EtOAc): mixture of Compound I Form I, Compound I Form II, and possibly other forms
solubility ([4]; listed as Comp. I HCl (formed using dry HCl) Form II): 120 µg/mL

CCS(=O)(=O)N1CCN(c2ccc(Nc3ncc(C(N)=O)c(NC4CC4)n3)cc2)CC1 [Compound I HCl amorphous, 4-(cyclopropylamino)-2-(4-(4-(ethylsulfonyl)piperazin-1-yl)phenylamino)pyrimidine-5-carboxamide]
GVS mass change ([5]; above about 40% RH, most markedly above about 80% RH): large increase in mass
Crystallinity on exposure to ambient conditions [6]: gradual increase in crystallinity

CCS(=O)(=O)N1CCN(c2ccc(Nc3ncc(C(N)=O)c(NC4CC4)n3)cc2)CC1 [Compound I mesylate Form III, 4-(cyclopropylamino)-2-(4-(4-(ethylsulfonyl)piperazin-1-yl)phenylamino)pyrimidine-5-carboxamide]
Form change on solubility analysis (XRPD post vs pre) [2]: same form, which is different than the forms of either input material
Form after slurry maturation (XRPD) ([3]; acetonitrile, EtOAc, ethanol, IPA, listed as Compound I mesylate (mono-mesylate) Form III): mixture of forms comprising Compound I mesylate Form III and other forms
solubility ([4]; listed as Comp. I Mesylate Similar to Form III): 2320 µg/mL

CCS(=O)(=O)N1CCN(c2ccc(Nc3ncc(C(N)=O)c(NC4CC4)n3)cc2)CC1 [Compound I sulfate Form I, 4-(cyclopropylamino)-2-(4-(4-(ethylsulfonyl)piperazin-1-yl)phenylamino)pyrimidine-5-carboxamide]
Form change on solubility analysis (XRPD post vs pre) ([2]; listed as Compound I sulfate prepared from IPA): form change to Compound I sulfate Form II
solubility ([4]; listed as Comp. I Sulfate Similar to Form I): 10 µg/mL

CCS(=O)(=O)N1CCN(c2ccc(Nc3ncc(C(N)=O)c(NC4CC4)n3)cc2)CC1 [Compound I sulfate Form II, 4-(cyclopropylamino)-2-(4-(4-(ethylsulfonyl)piperazin-1-yl)phenylamino)pyrimidine-5-carboxamide]
Form change on solubility analysis (XRPD post vs pre) ([2]; listed as Compound I sulfate prepared from water): no form change
GVS water absorbed ([5]; 25° C., first scale up material, listed as Comp. I Sulfate Similar to Form II): About 0.5 mg
GVS total weight loss ([5]; dried to 0% RH): about 5.9%
Crystalline form by XRPD post GVS analysis ([5]; exposure to humidity 0 to about 90% RH, about 25° C., listed as crystalline Compound I sulfate sample): slightly increased the crystallinity
Hygroscopicity (qualitative) ([5]; second scale up material): facile pick-up of surface moisture
GVS gradual weight gain ([5]; up to about 80% RH): about 4.2%
solubility ([4]; listed as Comp. I Sulfate Similar to Form II): 7 µg/mL

CCS(=O)(=O)N1CCN(c2ccc(Nc3ncc(C(N)=O)c(NC4CC4)n3)cc2)CC1 [Compound I, 4-(cyclopropylamino)-2-((4-(4-(ethylsulfonyl)piperazin-1-yl)phenyl)amino)pyrimidine-5-carboxamide]
pH range in which Compound I free base converted to Compound I HCl Form I [7]: < 2.0
